Measured values from patent US9624255B2, “Carbohydrate-mediated tumor targeting” (Arizona Board of Regents, priority 2009, dated 2017).

Key:
MCF-7 (Breast carcinoma) = experiment: Microbubble attachment to cultured cells (flow chamber, inverted microscopy); assay type: cell-based
Description: To create BLM A5- and deglyco BLM A5-microbubbles, the synthesized biotinylated compounds (1, 2 and 32) were conjugated to Targestar^B Targeted Ultrasound Contrast Agents (Targeson). For each of these preparations, 400 μL of Coupling Reagent (Targeson) was added to 1.5 mL of conjugated Targestar^B microbubbles and incubated for 20 min at room temperature, with gentle agitation every 5 min. The resulting product was divided into two syringes, each rinsed with 1.75 mL of Infusion Buffer, and then centrifuged for 3 min (400×g, 10° C.). The infranatant was then drained to 1 mL. For each separate preparation, […] containing 50 nM of the biotinylated compound was added to one of the vials and both were incubated at room temperature for 20 min with gentle agitation every 5 min. To each sample was added 1.75 mL of Infusion Buffer before centrifugation for 3 min at 400×g (10° C.). This solution was then drained to 1.0 mL before recovery of the supernatant and repetition of the previous step. Finally, the supernatant was resuspended in Infusion Buffer to a final volume of 2.0 mL.
Attachment of the (biotinylated BLM A5-, biotinylated deglyco BLM A5-, and biotinylated BLM A5 disaccharide-conjugated) microbubbles to the cultured cancer cells was imaged using an inverted microscope Zeiss Axiovert 200M fitted with an AxioCam MRm camera. […]

[1] = test system: A-549 lung carcinoma cells; experiment: Visualization of cell association of fluorescent-disaccharide probe (fluorescence microscopy); assay type: cell-based; settings: 1 fM, five minutes at 37° C.; A-549 compared with CCL-75 normal lung fibroblasts; FIG. 5
Description: In this case, we tethered a non-fluorescent pro-fluorophore, 5(6)-carboxyfluorescein diacetate (CFSE) onto the disaccharide of bleomycin to create a BLM-sugar probe. This fluorophore should only fluoresce when acted upon by the cell, where intracellular esterases cleave the acetate groups allowing for detectable fluorescence.
Both A-549 lung carcinoma cells and CCL-75 normal lung fibroblasts were seeded on 35 mm glass cover slips at a density of 2.5×10^5 cells before incubating 48 hours to allow attachment and growth. A total effective concentration of 1 fM of the fluorescent-sugar derivative (34) and 5(6)-carboxyfluorescein diacetate N-succinimidyl ester (CFSE) compounds were added to cover slips of each cell type before incubation for five minutes at 37° C. To prepare slides for microscopy viewing, cover slips were washed in PBS and 70% ethanol solution before fixation in Histochoice MB Fixative (Electron Microscopy Sciences, Hatfield, Pa.) for 15 minutes. Fixed cover slips were mounted onto glass slides for viewing. Using the Zeiss Axiovert 200M inverted microscope (Apotome camera), fluorescent images were acquired using DIC (at 35 ms exposure time) and appropriate fluorescence filter at 470-490 nm excitation (761 ms exposure time), 40× objective magnification.

## NC(=O)O[C@@H]1[C@H](O)[C@@H](O[C@@H]2[C@H](OCCOCCNC(=O)CCCC[C@@H]3SC[C@@H]4NC(=O)N[C@@H]43)O[C@@H](CO)[C@@H](O)[C@@H]2O)O[C@H](CO)[C@H]1O [Compound 32, (2R,3S,4S,5R,6R)-2-((2R,3S,4S,5S,6S)-4,5-dihydroxy-6-(hydroxymethyl)-2-(2-(2-(5-((3aS,4S,6aR)-2-oxohexahydro-1H-thieno[3,4-d]imidazol-4-yl)pentanamido)ethoxy)ethoxy)tetrahydro-2H-pyran-3-yloxy)-3,5-dihydroxy-6-(hydroxymethyl)tetrahydro-2H-pyran-4-yl Carbamate]
MCF-7 (Breast carcinoma); MCF-7 breast carcinoma cells, compound conjugated to microbubble, FIG. 3/4
  Microbubble attachment to MCF-7 cells (in words): greater attachment than biotinylated bleomycin A5
MCF-7 (Breast carcinoma); MCF-7 versus MCF-10A, conjugated onto the microbubble, FIG. 4a
  Preferential attachment, tumor over normal cells: preferential attachment to MCF-7 tumor cells over MCF-10A cells

## 5(6)-carboxyfluorescein diacetate N-succinimidyl ester [CFSE, reference compound]
[1]
  Fluorescence of cells after exposure to compound: lack of marked fluorescence

## CC(=O)Oc1ccc2c(c1)Oc1cc(OC(C)=O)ccc1C21OC(=O)c2cc(C(=O)NCCOCCO[C@@H]3O[C@@H](CO)[C@@H](O)[C@H](O)[C@@H]3O[C@H]3O[C@H](CO)[C@@H](O)[C@H](OC(N)=O)[C@@H]3O)ccc21 [Compound 34, (4,5)-(2-(2-((2R,3S,4S,5S,6S)-3-((2R,3S,4S,5R,6R)-4-(Carbamoyloxy)-3,5-dihydroxy-6-(hydroxymethyl)tetrahydro-2H-pyran-2-yloxy)-4,5-dihydroxy-6-(hydroxymethyl)tetrahydro-2H-pyran-2-yloxy)ethoxy)ethylcarbamoyl)-3-oxo-3H-spiro[isobenzofuran-1,9′-xanthene]-3′,6′-diyl Diacetate]
[1]
  Fluorescence of cells after exposure to compound: highest fluorescence only in the tumor cell line
